In patent publication US7598223B2, “Methods for producing target cell reactive lymphocytes” (The Board of Trustees of the Leland Stanford Junior …, priority 2004, dated 2009):
Each block holds one substance with its values, some of them ahead of it.

Columns and labels:
[1] = test system: T2 cells; assay: Determination of recognition efficiency (RE): 51Cr-release lysis of peptide-pulsed T2 targets by CTL clones; format: cell-based, human; conditions: for RE score (negative log10 of the peptide concentration required for 40% specific lysis): peptide-pulsed T2 cells, E:T ratio 10:1; for Mean RE (weighted): target cells pulsed with native peptide
Protocol: FIGS. 3A-3J. […] All assays were performed in triplicate and each clone was assayed twice. Error bars reflect variation between two separate assays. 3a.-c. CTL clones 476.105 and 132.1 were assayed for lysis of T2 cells pulsed with 10-fold dilutions of a. native or c. heteroclitc peptide at concentrations ranging from 100 fg/ml to 100 ng/ml. b. CTL clones 476.105 and 132.1 were assayed for lysis of Malme-3M melanoma cells. d.-e. […] Endogenous (461 and 132) and vaccine-induced (517, 520, 422 and 476) CTL clones were compared for RE in lysing target cells. f-g. […] Mean RE (weighted) for each response is indicated with horizontal bars. Weighted means were based on all clones, not only those assayed, and were estimated by summing the RE of each analyzed clone multiplied by the number of total clones expressing the same V-beta in each patient.
2. […] The E:T ratio was based upon live T and target cells. For each T cell clone, % cytotoxicity was plotted against peptide concentration. The peptide concentration at which the curve crosses 40% cytotoxicity was defined as the RE of that clone (Marguiles, Nat. Immunol. (2001) 2:669-670.
Similar RE assays were performed for the remaining clones from each patient selected for analysis. In order to compare REs of various CTL lines, each clone was assigned an RE score expressed as the negative log10 value of the peptide concentration required for 40% percent specific lysis at an E:T ratio of 10:1. […] We estimated the composite RE of the overall TAA-specific response (composed of a heterogeneous population of T cells) in vivo by summing the RE of each clone multiplied by its representation in the original mixture (the representation was estimated based on the proportion of TAA-specific cells expressing the same V-beta as the clone).

[2] = test system: T2 cells; assay: Micro-cytotoxicity 51Cr-release assay with tetramer+/CD8+ cells sorted from PBMC of patient 422; format: cell-based, human; conditions: patient 422 G209-2M tetramer+ cells; peptide 1 μg/ml; 4 hours
Text: Six patients with T cell responses specific for MART-1 or gp100 were selected for analysis. PBMC from each patient were stained with PE-conjugated peptide-MHC tetramers: G209-2M-tet PE or M26-tet PE, and co-stained with anti-CD8 FITC and anti-CD14, -CD19, and -CD4 Cy5PE. The plots shown are gated for CD14-, CD19-, and CD4-cells. Tetramer+/CD8+ cells are boxed. […] Micro-cytotoxicity ^51Cr-release assay with tetramer+/CD8+ cells isolated by FACS from the PBMC from patient 422. Isolated cells were assayed for lysis of T2 cells treated with relevant (G209-2M, G209n) or irrelevant (CMV) peptide, or mel 526 melanoma cells. Sorted cells were combined with 250 target cells at 13:1 E:T ratios for 4 hours and supernatants were assayed for percent specific release of radio-label.
Microcytotoxic assay: Cells were isolated directly from PBMC from patient 422 by FACS as described above. Cells were collected in microfuge tubes containing 1 ml ice cold 90% IMDM, with 10% FBS. Collected cells were washed and resuspended to 83,300 cells/ml in 90% IMDM, with 10% FBS. Targets were prepared as described above and resuspended to 8,300 cells/ml in 90% IMDM, with 10% FBS. […] Percent specific release of ^51Cr was calculated from 40 μl cell-free supernatant.

[3] = biological target: tetramer+ CD8+ T cells of patient 461 (their T cell receptors); assay: flow cytometry, tetramer staining of patient PBMC
[4] = biological target: tetramer+ CD8+ T cells of patient 517 (their T cell receptors); assay: flow cytometry, tetramer staining of patient PBMC
[5] = biological target: tetramer+ CD8+ T cells of patient 476 (their T cell receptors); assay: flow cytometry, tetramer staining of patient PBMC
[6] = biological target: tetramer+ CD8+ T cells of patient 132 (their T cell receptors); assay: flow cytometry, tetramer staining of patient PBMC
[7] = biological target: tetramer+ CD8+ T cells of patient 422 (their T cell receptors); assay: flow cytometry, tetramer staining of patient PBMC

Substance: ITAQVPSFV (SEQ ID NO:2) [G209-3A]
Activation of G209-specific target cell lysis by T cell clones ([1]; any concentrations, data not shown): does not activate

Substance: ITDQVPSFV (SEQ ID NO:1) (syArtificial Sequence) [G209n, native G209n peptide; agonist]
RE score (negative log10 of the peptide concentration required for 40% specific lysis) ([1]; CTL clone 132.1): 11.1
RE score (negative log10 of the peptide concentration required for 40% specific lysis) ([1]; CTL clone 476.105): 8.3
Mean RE (weighted) ([1]; CTL clones of patient 132 (endogenous)): 11.2
Mean RE (weighted) ([1]; CTL clones of patient 422 (vaccine-induced)): 9.7
Mean RE (weighted) ([1]; CTL clones of patient 476 (vaccine-induced)): 9.9
Lysis of peptide-pulsed T2 cells by directly isolated tetramer+ T cells [2]: specifically lysed

estimated percentage of total CD8+ cells that are also tetramer+/CD8+ [3]: 0.5%
estimated percentage of total CD8+ cells that are also tetramer+/CD8+ [4]: 0.23%
Substance: HLA-A*0201/M26 peptide tetramer-phycoerythrin (from UniProt P61769 21-119) (peptide-MHC)

estimated percentage of total CD8+ cells that are also tetramer+/CD8+ [5]: 0.31%
estimated percentage of total CD8+ cells that are also tetramer+/CD8+ [6]: 0.22%
estimated percentage of total CD8+ cells that are also tetramer+/CD8+ [7]: 2.5%
Substance: HLA-A*0201/G209-2M peptide tetramer-phycoerythrin (from UniProt P61769 21-119) (peptide-MHC)

Substance: IMDQVPSFV (SEQ ID NO:4) [G209-2M, heteroclitic peptide vaccine gp100 209-217 (210M), reference compound]
RE score (negative log10 of the peptide concentration required for 40% specific lysis) ([1]; CTL clone 132.1): 11.2
RE score (negative log10 of the peptide concentration required for 40% specific lysis) ([1]; CTL clone 476.105): 11.2
Lysis of peptide-pulsed T2 cells by directly isolated tetramer+ T cells [2]: specifically lysed
